Here are results for 9 compounds from PubChem BioAssay (NCI).

Test systems include T-47D breast; SF-539 CNS; UACC-257 melanoma; HS 578T breast; M14 melanoma; KM12 colon; 786-0 renal; SNB-75 CNS.
What all share (experiment): DTP human tumour cell line panel, 48 h

Several values for one entry are separate records, joined by “and”; a condition that tells them apart may be missing. Equal entries are not always repeated.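 Results reflect a 48-hour exposure of cells in 96-well plates to compound at five concentrations. GI50 is the concentration that inhibits growth by half. TGI denotes the concentration required for complete inhibition of growth.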

With `O=C(NNc1nc2c(F)cccc2n2cccc12)c1cnccn1`, the GI50 with T-47D breast was 0.509 µM; with SF-539 CNS, 0.487 µM; in the test on UACC-257 melanoma it was 1.15 µM; with HS 578T breast, 7.05 µM; in the test on M14 melanoma it was 0.269 µM; in the test with KM12 colon it was 0.458 µM. Also, the GI50 with 786-0 renal is 0.426 µM; in the test on SNB-75 CNS it was 1.98 µM. Further, the total growth inhibition concentration (TGI) in the test with T-47D breast is more than 34.3 µM; in the test with SF-539 CNS, 14.5 µM; in the test with UACC-257 melanoma, 8.31 µM; with HS 578T breast, 80.4 µM; in the test with M14 melanoma it was 11.7 µM; in the test on KM12 colon, 27.1 µM. Further, the TGI was 19.3 µM in the test on 786-0 renal and 41.6 µM in the test on SNB-75 CNS.

Turning to `Cc1cc2nc3c4cc(Cl)ccc4n(CCN(C)C)c3nc2cc1C`, the GI50 in the test on T-47D breast was 2.98 µM; in the test on SF-539 CNS it was 1.55 µM; in the test on UACC-257 melanoma, 1.76 µM; in the test on HS 578T breast, 2.35 µM; in the test with M14 melanoma, 1.49 µM; with KM12 colon, 1.55 µM. Also, the values for the GI50 with 786-0 renal and with SNB-75 CNS were 1.81 µM and 0.738 µM, respectively. For the same compound, the TGI in the test with T-47D breast was 16.6 µM; with SF-539 CNS it was 2.94 µM; with UACC-257 melanoma it was 3.59 µM; in the test on HS 578T breast it was 6.99 µM; with M14 melanoma, 2.93 µM; in the test with KM12 colon, 3.17 µM. For the same compound, the concentration for total growth inhibition (TGI) came to 4.22 µM in the test on 786-0 renal and 6.24 µM in the test with SNB-75 CNS.

Consider `Cc1nn(-c2ccc(S(=O)(=O)[O-])cc2)c([O-])c1N=[N+](C)c1ccc(-c2ccc(N=Nc3ccc4c(S(=O)(=O)[O-])cc(S(=O)(=O)[O-])c(N)c4c3[O-])c([O-])c2)cc1[O-].[Cu+2].[Cu+2].[Na+]`, for which the GI50 with T-47D breast, in the test with SF-539 CNS, in the test with UACC-257 melanoma, in the test on HS 578T breast, in the test on M14 melanoma and in the test on KM12 colon was more than 100 µM each time. The GI50 in the test with 786-0 renal and in the test on SNB-75 CNS was more than 100 µM in each case. The TGI in the test on T-47D breast, with SF-539 CNS, in the test with UACC-257 melanoma, with HS 578T breast, with M14 melanoma and with KM12 colon was more than 100 µM in each case. Moreover, the TGI with 786-0 renal and with SNB-75 CNS was more than 100 µM in each case.

Consider `COC(=O)C1OC(O[C@H]2CCC3(C)C(CCC4(C)C3CC=C3C5CC(C)(C)CCC5(C(=O)O)CC[C@]34C)C2(C)C)C(O)C(OC2OC(CO)C(O)C(O)C2O)C1O` (some centres not stated), for which the GI50 with T-47D breast was 8.16 µM; with UACC-257 melanoma it was 6.89 µM; with HS 578T breast, 8.77 µM; in the test on M14 melanoma, 6.22 µM; with KM12 colon it was 8.83 µM; in the test with 786-0 renal, 6.36 µM. Further, the TGI in the test on T-47D breast was determined as 17.2 µM; in the test on UACC-257 melanoma, 16.1 µM; with HS 578T breast it was 21.6 µM; in the test on M14 melanoma, 11.5 µM; in the test with KM12 colon, 28.9 µM; in the test with 786-0 renal it was 11.6 µM.

With `NC(N)=N/N=C(/c1ccccc1)c1ccc(F)cc1`, the GI50 with SF-539 CNS is 0.271 µM; with UACC-257 melanoma it was 2.94 µM; with HS 578T breast, 0.452 µM; in the test with M14 melanoma, 0.209 µM; with KM12 colon, 0.32 µM; in the test on 786-0 renal it was 0.638 µM. The concentration for 50% growth inhibition (GI50) with SNB-75 CNS was 0.183 µM. For the same compound, the TGI stood at 0.902 µM in the test with SF-539 CNS; 32.8 µM in the test with UACC-257 melanoma; 27.7 µM in the test with HS 578T breast; 0.506 µM with M14 melanoma; 7.5 µM in the test on KM12 colon; 13.9 µM with 786-0 renal. This compound also registered a concentration for total growth inhibition (TGI) with SNB-75 CNS of 3.09 µM.

Regarding `N#CC(=C1SCS1)[N+](=O)[O-]`, the GI50 is 0.724 µM with T-47D breast; 2.23 µM in the test with SF-539 CNS; 1.09 µM in the test on UACC-257 melanoma; 3.67 µM in the test with HS 578T breast; 3.29 µM in the test on KM12 colon; 3.12 µM in the test with 786-0 renal. The GI50 with SNB-75 CNS was 2.44 µM. The TGI in the test on T-47D breast came to 20.9 µM; in the test with SF-539 CNS it was 12.7 µM; in the test on UACC-257 melanoma, 7.06 µM; in the test on HS 578T breast, 41.2 µM; in the test with KM12 colon, 14.2 µM; with 786-0 renal, 14 µM. This compound also returned a TGI with SNB-75 CNS of 8.76 µM.

On to `CC(C)(C)OC(=O)n1cc(CNC(=S)Nc2ccccc2)c2ccccc21`, for which the GI50 with SF-539 CNS was 12.3 µM; in the test on UACC-257 melanoma it was 10.9 µM; in the test on HS 578T breast, 13.7 µM; in the test with M14 melanoma, 17.7 µM; in the test with KM12 colon it was 5.34 µM; in the test on 786-0 renal it was 17.7 µM. Further, the GI50 in the test with SNB-75 CNS is 64.4 µM. For the same compound, the concentration for total growth inhibition (TGI) stood at 25.4 µM in the test with SF-539 CNS; 30.5 µM with UACC-257 melanoma; 42.2 µM in the test on HS 578T breast; 33.3 µM in the test with M14 melanoma; 18.4 µM in the test on KM12 colon; 34.5 µM in the test with 786-0 renal. Besides, the TGI in the test with SNB-75 CNS was more than 100 µM.

Take `CCc1c2c(nc3cc4c(cc13)OCO4)-c1cc3c(c(=O)n1C2)COC(=O)[C@]3(O)CC`: the GI50 is less than 0.001 µM in the test with T-47D breast; less than 0.001 µM in the test with SF-539 CNS; 0.135 µM and 0.194 µM in the test on UACC-257 melanoma; less than 0.001 µM in the test with M14 melanoma; 0.184 µM and 0.191 µM in the test on KM12 colon. In addition, the total growth inhibition concentration (TGI) in the test on SF-539 CNS is 0.0505 µM; in the test on UACC-257 melanoma, 2.04 µM and 2.71 µM; in the test on HS 578T breast it was more than 100 µM; with M14 melanoma it was more than 100 µM; with KM12 colon it was more than 100 µM; with 786-0 renal, more than 100 µM.

For the compound `O=C(c1cccs1)c1c(C(F)(F)F)n([O-])c2ccccc2[n+]1=O`, the GI50 was 4.38 µM in the test on T-47D breast; 1.11 µM in the test with SF-539 CNS; 1.03 µM in the test on HS 578T breast; 0.771 µM in the test with M14 melanoma; 1.12 µM in the test on KM12 colon; 0.521 µM with 786-0 renal. Also, the GI50 in the test with SNB-75 CNS was 2.94 µM. The concentration for total growth inhibition (TGI) stood at 11.2 µM in the test on T-47D breast; 3.42 µM in the test with SF-539 CNS; 2.91 µM in the test with HS 578T breast; 1.58 µM in the test on M14 melanoma; 3.07 µM in the test with KM12 colon; 1.45 µM in the test with 786-0 renal. In the test on SNB-75 CNS, this compound returned a TGI of 9.05 µM.
